Test results as given in patent publication US20240024301A1, “METHODS OF TREATING HEAD AND NECK SQUAMOUS CELL CARCINOMA” (Kura Oncology, Inc., priority 2022, published 2024).

Key:
[1] = test system: CAL33 xenograft tumors; experiment: Immunohistochemistry of CAL33 CDX tumor samples; format: in vivo, mice; details: alpelisib 40 mg/kg QD, tipifarnib 60 mg/kg BID, or the combination, 10 days
Experimental: CAL33 xenograft tumors treated with alpelisib (40 mg/kg QD), tipifarnib (60 mg/kg BID), or the combination, for 10 days were subjected to immunohistochemistry analysis to assess levels of cell proliferation and apoptosis.
Fixation of tumor samples was performed by zinc formalin (Z-Fix, Anatech) and tissues were paraffin-embedded; samples were sectioned into 5 μm sections. Samples were deparaffinized, hydrated with graded ethanols, and the endogenous peroxidase was blocked with 3% H2O2 in 70% ethanol. After washing with distilled water, antigen retrieval was performed with IHC antigen retrieval solution (ThermoFisher Scientific, #00-4955-58) in a microwave at the high setting. Slides were then washed with water and PBS, and incubated with the primary and secondary antibodies, and developed with the ABC reagent (Vector Laboratories, #PK-6100) and the DAB substrate kit (Vector Laboratories, #SK-4105). The following antibodies were used: Cleaved PARP (Cell Signaling Technology #9661, 1:400 dilution) and Ki67 (DACO #M7240, 1:50). Percent positive cells in three fields per slide were counted using a microscope.

[2] = test system: PIK3CA-mutant CAL33 cells; experiment: Immunoblots of MAPK/PI3K pathway components and apoptotic markers; format: cell-based; details: alpelisib 0, 1, 2, 6, 24 hours, absence or presence of tipifarnib (48-hour treatment)
Experimental: (§1) Immunoblots of MAPK/PI3K pathway components and apoptotic markers in PIK3CA-mutant CAL33 cells treated with alpelisib (BYL-719) for 0, 1, 2, 6, and 24 hours in the absence or presence of tipifarnib (48-hour treatment) are shown in FIG. 2A. A shift in Rheb and HRas protein mobility is indicative of defarnesylation. Generally, immunoblotting was performed as follows: Cell lysates were prepared on ice by washing cells once with PBS, resuspending in 1× cell lysis buffer (Cell Signaling Technology #9803) or RIPA buffer supplemented with Halt protease inhibitor cocktail (Thermo Scientific #78430) and briefly sonicated or vortexed. Lysates were cleared by centrifugation (maximum speed, 10 min) and protein concentration was determined by BCA assay (Pierce). Lysate (20-60 μg) was loaded onto 4-12% Bis-Tris gels (NuPAGE, Invitrogen) for electrophoresis and immunoblotting. When RAS was evaluated, active RAS was detected using Thermo Scientific kit #16117. Membrane and cytosolic fractions were isolated using the Mem-PER Plus Membrane Protein Extraction Kit (Thermo Scientific kit #89842).
However, by 24 hours, phosphorylation of these proteins partially or completely rebounded. […]

[3] = test system: BICR22 cells; experiment: as above; format: cell-based; details: BICR22 (PIK3CA copy gain); alpelisib 0, 1, 24 hours, absence or presence of tipifarnib (48-hour treatment)
Experimental: as §1
(§2) Immunoblots of MAPK/PI3K pathway components and apoptotic markers in high HRas protein (i.e., overexpression of wild-type HRas protein) HNSCC cell line SCC9 cells and in PIK3CA copy gain (amplified) BICR22 cells are shown in FIG. 2B and FIG. 2D, respectively. […]

[4] = test system: SCC9 cells; experiment: as above; format: cell-based; details: SCC9 (HRas high); alpelisib 0, 1, 24 hours, absence or presence of tipifarnib (48-hour treatment)
Experimental: as §1, §2

[5] = test system: PIK3CA-mutant CAL33 tumors; experiment: Immunoblot and immunohistochemistry of treated CAL33 xenograft tumors; format: in vivo, athymic mice; details: tipifarnib 60 mg/kg BID, 10 days
Experimental: To assess the underlying mechanism of tumor regression, the PIK3CA-mutant CAL33 tumors were treated with tipifarnib (60 mg/kg BID), alpelisib (40 mg/kg QD), or the combination for 10 days. On day 10, tumors were collected from all cohorts at 2 and 24 hours after the final dose of alpelisib for immunohistochemistry and immunoblot analysis. […] Addition of tipifarnib blocked this rebound and promoted cell cycle arrest as indicated by decreased Rb phosphorylation.

[6] = test system: HSC2 (H1047R); experiment: PI3K-mTOR signaling by immunoblot; format: cell-based; details: 1 h and 24 h
Experimental: PI3K-mTOR Signaling in PIK3CA-mutant HSC2 Cell Line. The PIK3CA-mutant HNSCC cell line HSC2 (H1047R) was treated with the tipifarnib-alpelisib combination and mTOR activity was assessed by immunoblot.

[7] = test system: cell lines harboring PIK3CA mutation or amplification; experiment: Growth of PIK3CA-altered HNSCC cell lines, monolayer and spheroid cultures; format: cell-based
Experimental: (§3) Because a farnesyltransferase inhibitor may block hyperactivated growth factor signaling at multiple nodes, including HRas protein and Rheb protein, the impact of tipifarnib on the growth of PIK3CA-altered HNSCC models and HRAS-mutant HNSCC models in vitro and in vivo was examined. For tumor spheroid growth assays, cells were resuspended in 4% Matrigel and seeded in 96-well ultralow attachment plates at a density of 1-1.5K cells/well. The following day, spheroids were treated with alpelisib and/or tipifarnib and baseline growth measured using 3D Cell Titer Glo reagent (Promega). Spheroids were incubated with drug for 7 days and a final CTG reading taken. Percentage growth was calculated by[(Ti−Tz)/(C−Tz)]×100 for concentrations for which Ti>/=Tz and [(Ti−Tz)/Tz]×100 for concentrations for which Ti<Tz, where Tz=time zero, C=control growth, and Ti=test growth at each drug concentration. […] Consistently, in PIK3CA mutant/amplified PDX models, the tipifarnib-alpelisib doublet led to deeper antitumor responses compared to alpelisib monotherapy.

[8] = test system: Rheb protein; experiment: Lysosome extraction by density gradient ultracentrifugation and immunoblot; format: cell-based; details: CAL33 cells, versus DMSO
Source text: Active Rheb protein is thought to localize to lysosomes to regulate mTOR activity. Density gradient ultracentrifugation was utilized to extract lysosomes from CAL33 cells treated with DMSO or tipifarnib. Lysosomes were lysed and subjected to immunoblot analysis alongside whole-cell lysate (WCL), FIG. 4. LAMP1 is a lysosome-specific marker and is used in this assay.

[9] = test system: HRAS and RHEB; experiment: Subcellular fractionation and immunoblot of cytosol and membrane fractions; format: cell-based; details: CAL33, BICR22, and SCC9 cells; 1 μM tipifarnib (48 hr)
Experimental: as §1
CAL33, BICR22, and SCC9 cells were treated with DMSO, 250 nM alpelisib (24 hr), 1 μM tipifarnib (48 hr), or the combination.

[10] = test system: UM-SCC-17B (Q61L); experiment: HRAS-mutant cell line spheroid growth, checkerboard, 7 days; format: cell-based
Experimental: as §3
Inhibition of HRAS-mutant cell line spheroid growth by tipifarnib and/or alpelisib. The HRAS-mutant HNSCC cell line UM-SCC-17B (Q61L) was cultured as 3D tumor spheroids and treated with tipifarnib and/or alpelisib in a checkerboard dose-response fashion for 7 days.

[11] = molecular target: geranylgeranyltransferase type 1 (Homo sapiens, UniProt P53609); details: cited from earlier work

| Structure (SMILES) | Cleaved PARP (% positive cells) [1] [% positive cells] | Ki67 (% positive cells) [1] [% positive cells] | Pathway activity, cell cycle and apoptotic markers (immunoblot) [2] | Pathway activity, cell cycle and apoptotic markers (immunoblot) [3] | Pathway activity, cell cycle and apoptotic markers (immunoblot) [4] | mTOR activity (4EBP1, S6 phosphorylation) ([5]; alpelisib 40 mg/kg QD, tumors collected 2 and 24 hours after final alpelisib dose) | mTOR activity (phospho-S6K and S6) and PARP cleavage [6] | Proliferation / cytotoxicity [7] | Lysosomal localization of Rheb protein [8] | Farnesylation of HRAS and RHEB (immunoblot) [5] | Membrane localization of HRAS and RHEB [9] | Cytotoxicity in 3D tumor spheroids [10] | Inhibition of geranylgeranyltransferase type 1 [11] |
| --- | --- | --- | --- | --- | --- | --- | --- | --- | --- | --- | --- | --- | --- |
| Cc1nc(NC(=O)N2CCC[C@H]2C(N)=O)sc1-c1ccnc(C(C)(C)C(F)(F)F)c1 [Alpelisib, (2S)—N^1-[4-Methyl-5-[2-(2,2,2-trifluoro-1,1-dimethylethyl)-4-pyridinyl]-2-thiazolyl]-1,2-pyrrolidinedicarboxamide] | 5.1 ± 0.4 | 53.7 ± 9.8 | rapidly inhibited the activity of AKT, mTOR, and ERK | transiently reduced | transiently reduced | transiently inhibited mTOR activity | transiently inhibited | – | – | – | – | – | – |
| Cn1cncc1[C@@](N)(c1ccc(Cl)cc1)c1ccc2c(c1)c(-c1cccc(Cl)c1)cc(=O)n2C [Tipifarnib, (R)-6-[amino(4-chlorophenyl)(1-methyl-1H-imidazol-5-yl)methyl]-4-(3-chlorophenyl)-1-methyl-2(1H)-quinolinone] | 4.9 ± 2.1 | 35.1 ± 8.1 | – | – | – | – | – | reduced proliferation of both monolayer and spheroid cultures | markedly diminished the lysosomal localization of Rheb protein | resulted in defarnesylation of HRAS and RHEB | resulted in the membrane delocalization of the majority of HRAS and RHEB in all three cell types | induced cytotoxicity | not an inhibitor of geranylgeranyltransferase type 1 |
